Test results from patent EP1086695B1, “Antiviral compositions comprising yohimbine as active principle” (Leone, Enzo, priority 1999, dated 2001).
Structures can show the parent of a compound that is named as a salt.

Legend:
[1] = Doses effective as antiviral agent (general finding); format: in vivo; details: expressed as free base
Description: The preferred dosage is 5 mg/day from the onset of the first signs of the viral infection up to its cure. In the case of long courses of treatment, it is preferable to follow a scheme of two- or three-month cycles with intervals of rest of 10-15 days. Higher doses than the range indicated may result in a failure of the curative effect, this being due to the peculiarity of yohimbine, observed on various organs and apparatus, namely of stimulating an action (for example, splenocontraction) at a certain dose level, and the opposite action (splenodilation) at higher dose levels. Doses below the limit indicated may be therapeutically ineffective.

herpes virus 1 or 2 = test: Example 1: clinical treatment of herpes; format: in vivo; details: 5 mg/day; 30 patients
Description: In the course of 7 years, 30 patients suffering from herpes virus 1 or 2 were treated, the said patients still being currently under supervision.
The treatment involved the use of 5 mg/day of yohimbine HCI until resolution of the dermatological affections.

[2] = test system: herpetic keratoconjunctivitis; test: Example 2: clinical treatment of herpetic keratitis; format: in vivo, subjects
Text: These re-occurrences of acute episodes were, however, mastered with three-week cycles of treatment using the drug in question, with three-week rest intervals between one cycle and another.

influenza = test: Example 3: clinical treatment of influenza syndromes; format: in vivo; details: 5 mg/day, 7-10 day treatment; including elderly patients and children
herpes progenitalis = test: Example 4: treatment of herpes progenitalis in a serious form (single case); format: in vivo, person
Description: The patient took 5 mg/day of yohimbine HCI for more than one year with three-week rest intervals every three months, using a galenical preparation consisting of: […]

HSV-1 = details: against HSV-1 in their screening system; cited from earlier work

## COC(=O)[C@@H]1[C@H]2C[C@H]3c4[nH]c5ccccc5c4CCN3C[C@@H]2CC[C@@H]1O [yohimbine, methyl 17-alpha-hydroxy-20-alpha-yohimban-16-beta-carboxylate]
[1]
  doses at which yohimbine is effective as antiviral agent: 3 to 10 mg/day

## COC(=O)[C@@H]1[C@H]2C[C@H]3c4[nH]c5ccccc5c4CCN3C[C@@H]2CC[C@@H]1O [yohimbine HCI, yohimbine hydrochloride]
Herpes virus 1 or 2
  relapse: considerable reduction in the number of cases of relapse
[2]; 5 mg/day, 10 subjects
  relapse: the cases of relapse were less frequent and of shorter duration
[2]; 5 mg/day, in periods when the affection became more acute
  pain: the pain involved became more tolerable
[2]; treatment lasting several years, three-week cycles
  tolerability of treatment: without any problems of any sort arising
influenza
  outcome of influenza: complete resolution
Herpes progenitalis; 5 mg/day for more than one year
  side effect: did not reveal any side effect
Herpes progenitalis; 5 mg/day tablet, three-week rest intervals every three months
  lesions and vesicular eruptions: within approximately six months led to the disappearance of the lesions and of the vesicular eruptions
Herpes progenitalis; follow-up after treatment
  recurrence: Only one other slight episode of recurrence occurred five years later
HSV-1
  antiherpes activity: inactive

## Nc1nc2c(ncn2COCCO)c(=O)[nH]1 [acyclovir]
[2]; earlier classic treatment of the same 10 subjects
  benefit in terms of recidivation: without any benefit
Herpes progenitalis; earlier treatment with specific drugs
  outcome of earlier treatment: unsuccessfully
